Our source for the IC50 values is patent US20240199546A1, “INHIBITORS OF SOLUTE CARRIER FAMILY 6A MEMBER 19 (SLC6A19) AND METHODS OF USE THEREOF” (Maze Therapeutics, Inc., priority 2022, published 2024).

The structures appear in SMILES notation.

This experiment has as its target T1, human SLC6A19 and TMEM27 (Homo sapiens, UniProt Q695T7).
T1 construct: expressed in transfected cells
T1 sequence (Q695T7 1-634): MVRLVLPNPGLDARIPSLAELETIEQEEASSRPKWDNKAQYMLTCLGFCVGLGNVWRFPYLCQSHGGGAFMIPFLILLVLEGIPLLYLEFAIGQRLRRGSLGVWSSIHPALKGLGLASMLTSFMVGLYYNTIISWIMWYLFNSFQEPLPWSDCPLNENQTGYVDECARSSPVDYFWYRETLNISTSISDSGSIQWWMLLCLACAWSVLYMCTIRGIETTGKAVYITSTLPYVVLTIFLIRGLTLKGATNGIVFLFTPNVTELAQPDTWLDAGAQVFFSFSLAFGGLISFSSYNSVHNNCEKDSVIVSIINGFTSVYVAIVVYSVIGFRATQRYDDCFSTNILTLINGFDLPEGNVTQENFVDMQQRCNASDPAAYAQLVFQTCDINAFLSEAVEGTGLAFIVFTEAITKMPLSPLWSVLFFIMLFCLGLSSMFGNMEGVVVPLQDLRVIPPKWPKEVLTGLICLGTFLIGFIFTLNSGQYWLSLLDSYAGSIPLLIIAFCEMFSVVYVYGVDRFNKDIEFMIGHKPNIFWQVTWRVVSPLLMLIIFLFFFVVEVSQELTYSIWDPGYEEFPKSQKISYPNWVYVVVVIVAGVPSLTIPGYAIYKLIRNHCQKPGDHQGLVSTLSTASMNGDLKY
T1 sequence (Q9HBJ8 15-222 partner): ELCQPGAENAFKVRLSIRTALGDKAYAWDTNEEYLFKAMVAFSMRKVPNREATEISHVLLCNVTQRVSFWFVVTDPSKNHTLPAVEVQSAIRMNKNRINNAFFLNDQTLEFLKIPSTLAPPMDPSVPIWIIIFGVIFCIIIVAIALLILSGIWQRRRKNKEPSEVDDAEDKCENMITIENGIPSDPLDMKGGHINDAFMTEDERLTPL
In words: Radiolabelled (3H) leucine uptake in CHO cells with doxycycline-inducible expression of human SLC6A19 and TMEM27 (Example B-1). The format is cell-based. The following applies: CHO cells with doxycycline-inducible expression of human SLC6A19 and TMEM27, read-out: SLC6A19_Radioligand Uptake Assay IC50. Put shortly: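 CHO cells were induced with doxycycline for 18 h at 37 °C, washed in HBSS, then exposed to compounds for 1 h: 8-point, 3-fold dilutions in duplicate, 0.5% DMSO final. Uptake measured by scintillation counting after 2 h shaking. Activity normalized with positive control as 0% and DMSO as 100%.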
The IC50 is the concentration that inhibits the measured activity by half. As to `O=C(NCc1cc2cc(F)c(OCc3cscn3)cc2[nH]1)C1(C(F)(F)F)CC1` [Compound 127, N-((5-fluoro-6-(thiazol-4-ylmethoxy)-1H-indol-2-yl)methyl)-1-(trifluoromethyl)cyclopropane-1-carboxamide], the IC50 stood at 98 nM. For `CC(=O)NCc1cc2cc(Cl)c(OCc3cscn3)cc2[nH]1` [Compound 141, N-((5-chloro-6-(thiazol-4-ylmethoxy)-1H-indol-2-yl)methyl)acetamide] the value was 87 nM; for `COc1ccc(COc2cc3[nH]c(CNC(=O)C4(C)CC4)cc3cc2Cl)nn1` [Compound 337, N-((5-chloro-6-((6-methoxypyridazin-3-yl)methoxy)-1H-indol-2-yl)methyl)-1-methylcyclopropane-1-carboxamide], 1190 nM; for `Cc1cc(COc2cc3[nH]c(CNC(=O)[C@@H]4C[C@H]4F)cc3cc2Cl)on1` [Compound 537, (1S,2R)-N-((5-chloro-6-((3-methylisoxazol-5-yl)methoxy)-1H-indol-2-yl)methyl)-2-fluorocyclopropane-1-carboxamide], 108 nM. In the case of `Cc1cc(COc2cc3[nH]c(CNC(=O)[C@@H]4C[C@@H](F)CN4)cc3cc2Cl)on1` [Compound 665, (2S,4R)—N-((5-chloro-6-((3-methylisoxazol-5-yl)methoxy)-1H-indol-2-yl)methyl)-4-fluoropyrrolidine-2-carboxamide] it was 1560 nM; in that of `CC(F)C(=O)NCc1cc2cc(Cl)c(OCc3cscn3)cc2[nH]1` (single isomer, unassigned) [Compound 443, (S or R)-N-((5-chloro-6-(thiazol-4-ylmethoxy)-1H-indol-2-yl)methyl)-2-fluoropropanamide], 64.2 nM. In the case of `CC1(C(=O)NCc2cc3cc(Cl)c(CCn4ccnn4)cc3[nH]2)CC1` [Compound 583, N-((6-(2-(1H-1,2,3-triazol-1-yl)ethyl)-5-chloro-1H-indol-2-yl)methyl)-1-methylcyclopropane-1-carboxamide] it was 1520 nM; in that of `Cc1cc(COc2cc3[nH]c(CNC(=O)c4ccon4)cc3cc2Cl)on1` [Compound 450, N-((5-chloro-6-((3-methylisoxazol-5-yl)methoxy)-1H-indol-2-yl)methyl)isoxazole-3-carboxamide], 95.1 nM; in that of `Cc1cc(COc2cc3[nH]c(CNC(=O)C4CCN(C)C4=O)cc3cc2Cl)on1` (racemic) [Compound 574, (R)-N-((5-chloro-6-((3-methylisoxazol-5-yl)methoxy)-1H-indol-2-yl)methyl)-1-methyl-2-oxopyrrolidine-3-carboxamide and (S)-N-((5-chloro-6-((3-methylisoxazol-5-yl)methoxy)-1H-indol-2-yl)methyl)-1-methyl-2-oxopyrrolidine-3-carboxamide], 3600 nM. On to `CC1(C(=O)NCc2cc3cc(C(F)F)c(OCc4ccon4)cc3[nH]2)CC1` [Compound 646, N-((5-(difluoromethyl)-6-(isoxazol-3-ylmethoxy)-1H-indol-2-yl)methyl)-1-methylcyclopropane-1-carboxamide], for which the IC50 was 539 nM. For `CC1(C(=O)NCc2cc3cc(Cl)c(COc4ccon4)cc3[nH]2)CC1` [Compound 613, N-((5-chloro-6-((isoxazol-3-yloxy)methyl)-1H-indol-2-yl)methyl)-1-methylcyclopropane-1-carboxamide] the value was 82.4 nM; for `COC(C)COc1cc2[nH]c(CNC(=O)C3(C)CC3)cc2cc1Cl` (stereo not drawn) [Compound 454, N-((5-chloro-6-(2-methoxypropoxy)-1H-indol-2-yl)methyl)-1-methylcyclopropane-1-carboxamide], 787 nM; for `CC(C)OC(=O)NCc1cc2cc(Cl)c(OCc3cscn3)cc2[nH]1` [Compound 623, isopropyl ((5-chloro-6-(thiazol-4-ylmethoxy)-1H-indol-2-yl)methyl)carbamate], 532 nM. As for `O=C(NCc1cc2cc(Cl)c(OCc3cscn3)cc2[nH]1)C1CC2(CCC2)C1` [Compound 557, N-((5-chloro-6-(thiazol-4-ylmethoxy)-1H-indol-2-yl)methyl)spiro[3.3]heptane-2-carboxamide], the IC50 was over 8240 nM. `O=C(NCc1cc2c(F)cc(OCc3ccon3)cc2[nH]1)N1CCC1` [Compound 423, N-((4-fluoro-6-(isoxazol-3-ylmethoxy)-1H-indol-2-yl)methyl)azetidine-1-carboxamide]: the IC50 was determined as 198 nM. For `C[C@H]1CCCN1C(=O)NCc1cc2cc(F)c(OCc3cscn3)cc2[nH]1` [Compound 385, (S)-N-((5-fluoro-6-(thiazol-4-ylmethoxy)-1H-indol-2-yl)methyl)-2-methylpyrrolidine-1-carboxamide] the value was 549 nM; for `O=C(NCc1cc2cc(Cl)c(OCc3cscn3)cc2[nH]1)[C@@H]1C[C@H]1F` [Compound 543, (1S,2R)-N-((5-chloro-6-(thiazol-4-ylmethoxy)-1H-indol-2-yl)methyl)-2-fluorocyclopropane-1-carboxamide], 145 nM; for `O=C(NCc1cc2cc(F)c(OCc3ccon3)cc2[nH]1)N1CCC1` [Compound 89, N-((5-fluoro-6-(isoxazol-3-ylmethoxy)-1H-indol-2-yl)methyl)azetidine-1-carboxamide], 567 nM.

Take `CCC(=O)NCc1cc2c(F)cc(OCc3ccon3)cc2[nH]1` [Compound 517, N-((4-fluoro-6-(isoxazol-3-ylmethoxy)-1H-indol-2-yl)methyl)propionamide]: the IC50 was 243 nM. For `CC1(C(=O)NCc2cc3cc(F)c(OCc4ccno4)cc3[nH]2)CC1` [Compound 328, N-((5-fluoro-6-(isoxazol-5-ylmethoxy)-1H-indol-2-yl)methyl)-1-methylcyclopropane-1-carboxamide] the value was 147 nM; for `CC1(C(=O)NCc2cc3cc(-c4ccno4)c(OCc4cscn4)cc3[nH]2)CC1` [Compound 660, N-((5-(isoxazol-5-yl)-6-(thiazol-4-ylmethoxy)-1H-indol-2-yl)methyl)-1-methylcyclopropane-1-carboxamide], 1580 nM. For `CNC(=O)NCc1cc2cc(F)c(OCc3cc(C)on3)cc2[nH]1` [Compound 212, 1-((5-fluoro-6-((5-methylisoxazol-3-yl)methoxy)-1H-indol-2-yl)methyl)-3-methylurea] the value was 429 nM; for `C[C@H]1CCCN1C(=O)NCc1cc2cc(F)c(OCc3ccon3)cc2[nH]1` [Compound 384, (S)-N-((5-fluoro-6-(isoxazol-3-ylmethoxy)-1H-indol-2-yl)methyl)-2-methylpyrrolidine-1-carboxamide], 1570 nM; for `CC1(C(=O)NCc2cc3cc(-c4cnco4)c(OCc4cscn4)cc3[nH]2)CC1` [Compound 661, 1-methyl-N-((5-(oxazol-5-yl)-6-(thiazol-4-ylmethoxy)-1H-indol-2-yl)methyl)cyclopropane-1-carboxamide], 1000 nM. As to `Cc1cc(COc2cc3[nH]c(CNC(=O)[C@H]4CCO4)cc3cc2Cl)on1` [Compound 317, (R)-N-((5-chloro-6-((3-methylisoxazol-5-yl)methoxy)-1H-indol-2-yl)methyl)oxetane-2-carboxamide], the IC50 is 119 nM.

`Cc1cc(COc2cc3[nH]c(CNC(=O)NC(C)C)cc3cc2Cl)on1` [Compound 638, 1-((5-chloro-6-((3-methylisoxazol-5-yl)methoxy)-1H-indol-2-yl)methyl)-3-isopropylurea]: the IC50 came out at 264 nM. For `CC1(C(=O)NCc2cc3cc(Cl)c(OCc4cccnn4)cc3[nH]2)CC1` [Compound 334, N-((5-chloro-6-(pyridazin-3-ylmethoxy)-1H-indol-2-yl)methyl)-1-methylcyclopropane-1-carboxamide] the value was 519 nM; for `Cc1cc(COc2cc3[nH]c(CNC(=O)CC4COC4)cc3cc2Cl)on1` [Compound 258, N-((5-chloro-6-((3-methylisoxazol-5-yl)methoxy)-1H-indol-2-yl)methyl)-2-(oxetan-3-yl)acetamide], 2670 nM; for `COCC(=O)NCc1cc2cc(F)c(OCc3cscn3)cc2[nH]1` [Compound 265, N-((5-fluoro-6-(thiazol-4-ylmethoxy)-1H-indol-2-yl)methyl)-2-methoxyacetamide], 120 nM. In the case of `CC1(C(=O)NCc2cc3cc(F)c(CCc4cscn4)cc3[nH]2)CC1` [Compound 594, N-((5-fluoro-6-(2-(thiazol-4-yl)ethyl)-1H-indol-2-yl)methyl)-1-methylcyclopropane-1-carboxamide] it was 120 nM.
